Among the data in patent US9371295B2, “Compounds for use in the treatment of disorders that are ameliorated by inhibition of HDAC” (IRBM—Science Park S.p.A., priority 2012, dated 2016) are IC50 and EC50 values, retold here.

In one assay the target is T1, HDAC1 (Homo sapiens, UniProt Q13547).
T1 construct: made in house
Briefly: HDAC1 assay (Fluor-de-Lys fluorescent deacetylase assay). The settings on record: read-out: hHDAC IC50. Format: biochemical. The method, then: The HDAC1 assay is used to quantify the histone deacetylase (HDAC) activity. The assay is performed in 384 well microtiter plates by pre-incubating serial dilutions of the compounds with a fixed concentration of HeLa nuclear extract or purified HDAC1 and then adding an acetylated lysine-containing substrate/developer that fluoresces upon deacetylation.
Reagents of the HDAC Fluorescent Activity Assay are purchased from BioMol Research Laboratories (Plymouth Meeting, Pa.) and feature the Fluor-de-Lys™ Substrate/Developer System.
TSA Stock: TSA is provided as a 10 mM stock solution in 100% dimethylsulfoxide (DMSO). […] The final concentration in the assay is 20 uM.
3 uM [final] TSA to this solution increases its ability to stop the reaction.
HDAC1 Working Solution: The HDAC1 enzyme is diluted in assay buffer prior to each use from a fresh aliquot of enzyme. The final concentration in the assay is 1-2 nM.
Compounds: Test compounds are directly transferred from a 100% DMSO solution into assay plates by spotting nanoliters of solutions by an acoustic dispenser (ATS-100, EDC biosystems, US).
HeLa cells transiently transfected with pCDNA3-HDAC1-FLAG are grown to 80% confluence on 10 cm culture dishes in DMEM, 10% Fetal bovine serum supplemented with antibiotics and glutamine. Cells are washed with 10 ml cold PBS and scraped into 2 ml of PBS. Cells are centrifuged for 5 minutes at 800×g at 4° C., washed with 30 ml PBS and resuspended in 10 ml PBS, counted, re-centrifuged and frozen at −80° C.
The frozen cell pellet is re-suspended in 1 ml of hypotonic lysis buffer (LB: 20 mM Hepes pH7.9, 0.25 mM EDTA, 10% glycerol) containing COMPLETE protease inhibitor and incubated on ice for 15 minutes, followed by homogenization on a 2-ml DounceB homogenizer (25 strokes). 150 mM KCl and 0.5% NP-40 are added to the homogenate and the solution is sonicated twice for 30 seconds (output5/6, duty cycle 90) and incubated for 1 hour at 4° C. After a 30 minutes centrifugation at 12000 rpm and 4° C. the supernatant (soluble extract) is collected and protein concentration is determined using the BIORAD assay.
Anti-FLAG M2 affinity resin (Sigma) is washed three times with TBS and twice with LB. 10 μl of the LB-washed resin/mg of protein (2-3 ug of Flagged-HDAC1) are added to the soluble extract (1 mL) and incubated overnight at 4° C. with gentle mixing. The resin is then collected by centrifugation, washed once with LB, twice with LB+0.1% NP40 and twice with elution buffer (50 mM Hepes pH 7.4, 5% glycerol, 100 mM KCl, 0.01% Triton X-100).
The concentration of purified HDAC is determined by Western blot analysis.

Another assay concerns HDAC in Hela cells. The assay is described as follows: HDAC Hela Cell Based assay.
Assay [1] concerns human γ-globin promoter (EGFP reporter) in K562 cells. Briefly: HbF activation assay on K562 (EGFP/RFP reporter model system for screening of inducers of fetal hemoglobin). The settings on record: 60 hours. Format: cell-based. The source says:
In order to test several compounds, a model system was produced based on previous findings present in the literature. The K562 erythroid-like cell lines, isolated and characterized by Lozzio & Lozzio (Blood, 45(3), pp 321-334) from a patient with chronic myelogenous leukemia in blast crisis, have been extensively employed as a useful in vitro model to study the molecular mechanism(s) regulating the expression of embryonic and fetal human globin genes, as well as for screening of new differentiation-inducing compounds. A stable cell line where reporter genes encoding green EGFP and far-red fluorescent protein red-FP are placed under the control of the human γ-globin or β-globin promoters respectively was used (see Vadolas et al, Hum. Mol. Genet. 2004, 13, 2, 223-233 for details). The modified 3-cluster also contains the upstream regulatory region called LCR. This cell line grows in suspension at 37° C. and 5% CO2 in humidified atmosphere in the following medium: DMEM, 10% foetal bovine serum, glutamine and antibiotics (penicillin and streptomycin);
The assay procedures is as follows: • Single concentration compounds or serially diluted samples are transferred to an empty assay plates by a spotter (ATS-100, EDC Biosystems, USA) in order to have a final concentration of DMSO of 0.25% in 50 μL of cell culture. Source plats contains compounds dissolved in 100% DMSO • Black, transparent bottom, 384 wells, tissue culture treated plates are used as assay plates. • Assay plates containing spotted compounds are filled with a suspension of cell in the described assay medium. The final cell concentration is of 1000 cells per well. • Cells are incubated in humidified atmosphere, 37° C.-5% CO2, for 60 hours • Cell nuclei are stained by adding 10 ul (6 μM; 1 μM final) Hoechst 33342 (Life Technologies, USA) • The cell associated intensity is read by a plate based cytometer (ACUMEN explorer, TTP Labtech, UK) • The nuclei count is used to assess the cell proliferation/death and to normalize the total EGFP/RFP intensity. HbF Activation Assay in Human Cell Line K562
The compounds of the invention were tested in the HbF activation assay on K562, as model system for screening of potential inducers of fetal hemoglobin.

T1 sequence (Q13547 whole entry): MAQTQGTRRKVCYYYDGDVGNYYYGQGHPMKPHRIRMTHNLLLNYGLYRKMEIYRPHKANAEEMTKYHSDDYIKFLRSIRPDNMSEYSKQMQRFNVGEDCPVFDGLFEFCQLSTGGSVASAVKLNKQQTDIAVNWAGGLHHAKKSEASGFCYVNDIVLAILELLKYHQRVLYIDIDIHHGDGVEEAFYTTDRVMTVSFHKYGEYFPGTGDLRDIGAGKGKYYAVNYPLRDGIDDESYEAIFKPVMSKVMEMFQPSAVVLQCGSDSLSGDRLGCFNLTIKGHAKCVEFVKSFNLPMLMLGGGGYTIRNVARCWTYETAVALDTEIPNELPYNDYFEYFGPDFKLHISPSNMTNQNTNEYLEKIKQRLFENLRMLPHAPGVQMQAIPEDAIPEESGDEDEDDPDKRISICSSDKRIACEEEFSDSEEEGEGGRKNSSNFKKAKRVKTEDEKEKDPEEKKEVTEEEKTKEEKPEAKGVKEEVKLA

`CCC(=O)CCCCC[C@H](NC(=O)[C@@H]1CC(F)(F)CN1)c1ncc(-c2cc3ccccc3nc2OC)o1` [Compound 60, (S)-4,4-difluoro-N-((S)-1-(5-(2-methoxyquinolin-3-yl)oxazol-2-yl)-7-oxononyl)pyrrolidine-2-carboxamide]: the IC50 at HDAC1 was < 0.1 µM; in the assay on HDAC in Hela cells it was > 1 µM. Moreover, the EC50 in assay [1] is > 1 µM.

Turning to `CCC(=O)CCCCC[C@H](NC(=O)C1CN(C)C1)c1ncc(-c2ccc(-n3cccn3)cc2)o1` [Compound 61, (S)-N-(1-(5-(4-(1H-pyrazol-1-yl)phenyl)oxazol-2-yl)-7-oxononyl)-1-methylazetidine-3-carboxamide], the IC50 at HDAC1 was < 0.1 µM; in the assay with HDAC in Hela cells, 0.1 to 1 µM. Further, the EC50 in assay [1] is > 1 µM.

As for `CCC(=O)CCCCC[C@H](NC(=O)C1CN(C(C)=O)C1)c1ncc(-c2ccc(-n3cccn3)cc2)o1` [Compound 62, (S)-N-(1-(5-(4-(1H-pyrazol-1-yl)phenyl)oxazol-2-yl)-7-oxononyl)-1-acetylazetidine-3-carboxamide], the IC50 at HDAC1 was < 0.1 µM; in the assay with HDAC in Hela cells, 0.1 to 1 µM. Besides, the EC50 in assay [1] is > 1 µM.

Regarding `CCC(=O)CCCCC[C@H](NC(=O)[C@H](CC(F)(F)F)N(C)C)c1ncc(-c2cc3ccccc3nc2OC)o1` [Compound 63, (S)-2-(dimethylamino)-4,4,4-trifluoro-N-((S)-1-(5-(2-methoxyquinolin-3-yl)oxazol-2-yl)-7-oxononyl)butanamide], the IC50 at HDAC1 is 0.1 to 1 µM; in the assay with HDAC in Hela cells it was > 1 µM. Besides, in assay [1], the EC50 was > 1 µM.

For `CCC(=O)CCCCC[C@H](NC(=O)[C@@H](CC(F)(F)F)N(C)C)c1ncc(-c2cc3ccccc3nc2OC)o1` [Compound 64, (R)-2-(dimethylamino)-4,4,4-trifluoro-N-((S)-1-(5-(2-methoxyquinolin-3-yl)oxazol-2-yl)-7-oxononyl)butanamide], the 50% inhibitory concentration (IC50) at HDAC1 is < 0.1 µM; with HDAC in Hela cells, > 1 µM. Besides, the EC50 in assay [1] is > 1 µM.

As for `CCC(=O)CCCCC[C@H](NC(=O)C1CN(C)C1)c1ncc(-c2ccc(-c3ccc(OC)nc3)cc2)o1` [Compound 65, (S)-N-(1-(5-(4-(6-methoxypyridin-3-yl)phenyl)oxazol-2-yl)-7-oxononyl)-1-methylazetidine-3-carboxamide], the values for the IC50 on HDAC1 and in the assay with HDAC in Hela cells were < 0.1 µM and 0.1 to 1 µM, respectively. Moreover, the EC50 in assay [1] is > 1 µM.

In the case of `CCC(=O)CCCCC[C@H](NC(=O)[C@@H]1C[C@H](F)CN1C)c1ncc(-c2cc3ccccc3nc2OC)o1` [Compound 66, (2S,4S)-4-fluoro-N-((S)-1-(5-(2-methoxyquinolin-3-yl)oxazol-2-yl)-7-oxononyl)-1-methylpyrrolidine-2-carboxamide], the IC50 is < 0.1 µM at HDAC1 and 0.1 to 1 µM in the assay with HDAC in Hela cells. In addition, the EC50 in assay [1] was > 1 µM.

With `CCC(=O)CCCCC[C@H](NC(=O)C1(F)CCN(C)CC1)c1ncc(-c2cc3ccccc3nc2OC)o1` [Compound 68, (S)-4-fluoro-N-(1-(5-(2-methoxyquinolin-3-yl)oxazol-2-yl)-7-oxononyl)-1-methylpiperidine-4-carboxamide], the IC50 at HDAC1 is < 0.1 µM; with HDAC in Hela cells it was 0.1 to 1 µM. Moreover, the EC50 in assay [1] is > 1 µM.

On to `CCC(=O)CCCCC[C@H](NC(=O)C(=O)N1CCOCC1)c1ncc(-c2cc3ccccc3nc2OC)o1` [Compound 69, (S)-N-(1-(5-(2-methoxyquinolin-3-yl)oxazol-2-yl)-7-oxononyl)-2-morpholino-2-oxoacetamide], for which the IC50 at HDAC1 was < 0.1 µM; in the assay with HDAC in Hela cells it was 0.1 to 1 µM. For the same compound, the EC50 in assay [1] was > 1 µM.

Turning to `CCC(=O)CCCCC[C@H](NC(=O)C1CN(C)C1)c1ncc(-c2cccc3cccnc23)o1` [Compound 70, (S)-1-methyl-N-(7-oxo-1-(5-(quinolin-8-yl)oxazol-2-yl)nonyl)azetidine-3-carboxamide], the IC50 is < 0.1 µM on HDAC1 and 0.1 to 1 µM in the assay with HDAC in Hela cells. The EC50 in assay [1] was > 1 µM.

Regarding `CCC(=O)CCCCC[C@H](NC(=O)C1CN(C)C1)c1nnc(-c2cc3ccccc3n(C)c2=O)o1` [Compound 71, (S)-1-methyl-N-(1-(5-(1-methyl-2-oxo-1,2-dihydroquinolin-3-yl)-1,3,4-oxadiazol-2-yl)-7-oxononyl)azetidine-3-carboxamide], the IC50 on HDAC1 is < 0.1 µM; with HDAC in Hela cells, 0.1 to 1 µM. The EC50 in assay [1] was > 1 µM.

Turning to `CCC(=O)CCCCC[C@H](NC(=O)C1CNC(=O)C1)c1ncc(-c2cc3ccccc3nc2OC)o1` (stereo partly drawn) [Compound 72, N-((S)-1-(5-(2-methoxyquinolin-3-yl)oxazol-2-yl)-7-oxononyl)-5-oxopyrrolidine-3-carboxamide], the IC50 on HDAC1 was < 0.1 µM; in the assay on HDAC in Hela cells it was 0.1 to 1 µM. The compound also showed a 50% effective concentration (EC50) in assay [1] of 0.1 to 1 µM.

With `CCC(=O)CCCCC[C@H](NC(=O)Cc1c[nH]cn1)c1ncc(-c2cc3ccccc3nc2OC)o1` [Compound 73, (S)-2-(1H-imidazol-4-yl)-N-(1-(5-(2-methoxyquinolin-3-yl)oxazol-2-yl)-7-oxononyl)acetamide], the IC50 on HDAC1 is < 0.1 µM; with HDAC in Hela cells it was 0.1 to 1 µM. Moreover, the EC50 in assay [1] is > 1 µM.

Turning to `CCC(=O)CCCCC[C@H](NC(=O)Cc1cccnc1)c1ncc(-c2cc3ccccc3nc2OC)o1` [Compound 74, (S)-N-(1-(5-(2-methoxyquinolin-3-yl)oxazol-2-yl)-7-oxononyl)-2-(pyridin-3-yl)acetamide], the IC50 was < 0.1 µM on HDAC1 and 0.1 to 1 µM in the assay on HDAC in Hela cells. Also, the EC50 in assay [1] was > 1 µM.

For the compound `CCC(=O)CCCCC[C@H](NC(=O)CCn1ccnc1)c1ncc(-c2cc3ccccc3nc2OC)o1` [Compound 75, (S)-3-(1H-imidazol-1-yl)-N-(1-(5-(2-methoxyquinolin-3-yl)oxazol-2-yl)-7-oxononyl)propanamide], the IC50 on HDAC1 is < 0.1 µM; with HDAC in Hela cells, 0.1 to 1 µM. In addition, the EC50 in assay [1] lay within 0.1 to 1 µM.

As to `CCC(=O)CCCCC[C@H](NC(=O)Cc1nccs1)c1ncc(-c2cc3ccccc3nc2OC)o1` [Compound 76, (S)-N-(1-(5-(2-methoxyquinolin-3-yl)oxazol-2-yl)-7-oxononyl)-2-(thiazol-2-yl)acetamide], the IC50 was < 0.1 µM at HDAC1 and 0.1 to 1 µM with HDAC in Hela cells. Besides, in assay [1], the EC50 was > 1 µM.

For the compound `CCC(=O)CCCCC[C@H](NC(=O)Cc1nonc1C)c1ncc(-c2cc3ccccc3nc2OC)o1` [Compound 77, (S)-N-(1-(5-(2-methoxyquinolin-3-yl)oxazol-2-yl)-7-oxononyl)-2-(4-methyl-1,2,5-oxadiazol-3-yl)acetamide], the 50% inhibitory concentration (IC50) was < 0.1 µM on HDAC1 and 0.1 to 1 µM with HDAC in Hela cells. The half-maximal effective concentration (EC50) in assay [1] is > 1 µM.

A word on the IC50: it is the concentration that gives 50% inhibition. The EC50 is the concentration giving half of the maximal effect. Read a low EC50 as an effect from little substance.
